Consider six compounds from the supplement of paper PMC11061612.

Experiment [1] relates to BC-1 (B-Cell Non-Hodgkin's Lymphoma). Put plainly: Bliss excess, mean over the matrix (fraction); higher = more synergy. Put shortly:
(§1)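 Bliss excess equals the observed combination effect minus the expected value EA + EB − EA·EB, where EA and EB are the effects of each agent alone. Combination Emax is the second-highest inhibition within the matrix. Inhibition was scaled from CellTiter-Glo 2.0 luminescence, with 0 set by vehicle wells and 1 by blank wells, after 72 hours of two-drug dosing of cells plated in 1536-well plates.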

The test system of experiment [2] is TOV-21G (Ovarian Carcinoma). The description is as above. Put shortly: as §1
Experiment [3] concerns BT-474 (Breast Carcinoma). Described as above. Put shortly: as §1
Experiment [4] deals with IGROV-1 (Ovarian Carcinoma). Described as above. Put shortly:
as §1

Experiment [5] has as its system NCI-H2170 (Squamous Cell Lung Carcinoma). Described as above. Put shortly: as §1
The subject of experiment [6] is JJN-3 (Plasma Cell Myeloma). The experiment is described as above. Put shortly:
as §1

For the next experiment, the system named is GCIY (Gastric Carcinoma). The experiment is described as above. Put shortly:
as §1

A further experiment concerns SK-MEL-24 (Melanoma). The description is as above. The gist of the method: as §1
Experiment [7] concerns RVH-421 (Melanoma). The experiment is described as above. The gist of the method: as §1
The subject of experiment [8] is SUP-HD1 (Hodgkin's Lymphoma). The experiment is described as above. The gist of the method: as §1
Experiment [9] concerns OCI-M1 (Acute Myeloid Leukemia). The experiment is described as above. Put shortly:
as §1

Experiment [10] concerns MRK-nu-1 (Breast Carcinoma). The experiment is described as above. The gist of the method: as §1
Experiment [11] deals with COR-L105 (Lung Adenocarcinoma). The description is as above. Put shortly:
as §1

Experiment [12] deals with NTERA-2-cl-D1 (Other Solid Carcinomas). Described as above. Put shortly:
as §1

Experiment [13] has as its system OVKATE (Ovarian Carcinoma). Described as above. The gist of the method: as §1
A further experiment has as its system MG-63 (Osteosarcoma). The description is as above. The gist of the method: as §1
Experiment [14] relates to NCI-H1975 (Lung Adenocarcinoma). The description is as above. Put shortly: as §1
In experiment [15] the test system is RVH-421 (Melanoma). Description: combination Emax (second highest fraction inhibited in the dose matrix, 72 h); higher = more inhibition; extreme values may be limits of the assay. The gist of the method:
as §1

Structures are written as SMILES.

With `CN(CCO)CC[C@H](CSc1ccccc1)Nc1ccc(S(=O)(=O)NC(=O)c2ccc(N3CCC([C@@H](O)c4ccccc4-c4ccc(Cl)cc4)CC3)cc2)cc1S(=O)(=O)C(F)(F)F` [AZD4320] + Cc1cc2ncnn2cc1Nc1ncc2c(n1)n(C1CCOCC1)c(=O)n2C [AZD7648] (first compound max 1 µM, 7x7, partner max 10 µM), the Bliss excess in experiment [1] was 0.0246; in [2] it was -0.0221; in experiment [3], -0.0628; in [4], 0.0266; in [5], -0.006; in experiment [6] it was 0.0461. In addition, the Bliss excess in the experiment with GCIY (Gastric Carcinoma) was -0.0452; with SK-MEL-24 (Melanoma), -0.0429; in the experiment with RVH-421 (Melanoma) [7], -0.0345; in [8] it was 0.0039; in experiment [9], 0.0138; in experiment [10] it was 0.0501. Besides, the Bliss excess in [11] was -0.0146; in experiment [12], 0.0408; in experiment [13], -0.0269; in the experiment with MG-63 (Osteosarcoma), -0.0463; in [14] it was -0.0283. In the experiment with RVH-421 (Melanoma) [15], the “combination Emax” value is 0.211.
Regarding `COc1cc2ncnc(Nc3ccc(F)c(Cl)c3)c2cc1OCCCN1CCOCC1` [Gefitinib] + CC(C)n1c(=O)n(C)c2cnc3cc(F)c(-c4ccc(OCCCN5CCCCC5)nc4)cc3c21 [AZD1390] (first compound max 10 µM, 7x7, partner max 0.3 µM), the Bliss excess is -0.0279 in experiment [1]; -0.084 in experiment [2]; -0.0866 in experiment [3]; -0.0824 in [4]; -0.0867 in experiment [5]; -0.0185 in experiment [6]. For the same compound, the Bliss excess in the experiment on GCIY (Gastric Carcinoma) is 0.0145; with SK-MEL-24 (Melanoma), -0.0831; in [8], -0.0683; in experiment [9] it was -0.065; in experiment [10] it was 0.0492; in [11], -0.0374. The Bliss excess in experiment [12] is -0.0643; in experiment [13], -0.0386; in the experiment on MG-63 (Osteosarcoma), -0.0772; in experiment [14], -0.0676.
With `CN(CCO)CC[C@H](CSc1ccccc1)Nc1ccc(S(=O)(=O)NC(=O)c2ccc(N3CCC([C@@H](O)c4ccccc4-c4ccc(Cl)cc4)CC3)cc2)cc1S(=O)(=O)C(F)(F)F` [AZD4320] + Nc1ccn([C@@H]2O[C@H](CO)[C@@H](O)C2(F)F)c(=O)n1 [Gemcitabine] (first compound max 1 µM, 7x7, partner max 0.3 µM), the Bliss excess in experiment [1] was -0.0074; with GCIY (Gastric Carcinoma) it was -0.0151; in the experiment on SK-MEL-24 (Melanoma), -0.0082; in [10], 0.0117; in experiment [11], -0.0111; in experiment [12], -0.0239. The Bliss excess in experiment [13] was -0.0542; in the experiment on MG-63 (Osteosarcoma), 0.0293.
Regarding `Cc1cc2ncnn2cc1Nc1ncc2c(n1)n(C1CCOCC1)c(=O)n2C` [AZD7648] + O=C(c1cc(Cc2n[nH]c(=O)c3ccccc23)ccc1F)N1CCN(C(=O)C2CC2)CC1 [Olaparib] (first compound max 10 µM, 7x7, partner max 10 µM), the Bliss excess in [1] is 0.0015; in experiment [2], -0.0363; in [3], -0.0457; in experiment [4], -0.0782; in experiment [5], -0.0052; in experiment [6], -0.008. For the same compound, the Bliss excess is -0.0554 with GCIY (Gastric Carcinoma); -0.0533 in the experiment on SK-MEL-24 (Melanoma); -0.0684 in the experiment on RVH-421 (Melanoma) [7]; 0.0862 in experiment [8]; -0.0248 in [9]; -0.0615 in experiment [10]. The Bliss excess in experiment [11] was -0.034; in experiment [12], 0.0101; in experiment [13], -0.0688; in the experiment with MG-63 (Osteosarcoma), 0.0014; in [14], 0.0135. Further, the “combination Emax” value with RVH-421 (Melanoma) [15] came to 0.0825.
On to `CN(CCO)CC[C@H](CSc1ccccc1)Nc1ccc(S(=O)(=O)NC(=O)c2ccc(N3CCC([C@@H](O)c4ccccc4-c4ccc(Cl)cc4)CC3)cc2)cc1S(=O)(=O)C(F)(F)F` [AZD4320] + CCN(CCO)CCCOc1ccc2c(Nc3cc(CC(=O)Nc4cccc(F)c4)[nH]n3)ncnc2c1 [AZD2811] (first compound max 1 µM, 7x7, partner max 1 µM), for which the Bliss excess in [1] was 0.091; in experiment [2], -0.0177; in experiment [3], 0.0081; in experiment [4], 0.0206; in experiment [5], -0.051; in experiment [6], 0.151. Moreover, the Bliss excess was -0.0067 in the experiment on GCIY (Gastric Carcinoma); -0.0647 in the experiment with SK-MEL-24 (Melanoma); -0.0297 in the experiment on RVH-421 (Melanoma) [7]; 0.0476 in experiment [8]; 0.0074 in [9]; 0.0505 in [10]. The Bliss excess was -0.0523 in experiment [11]; 0.159 in experiment [12]; -0.0204 in [13]; 0.0838 with MG-63 (Osteosarcoma); -0.0226 in [14]. For the same compound, the “combination Emax” value with RVH-421 (Melanoma) [15] came out at 0.196.
Regarding `C[C@@H](c1ccc2nccn2c1)n1nnc2ncc(-c3cnn(C)c3)nc21` [Savolitinib] + Cc1c2c(nn1C)CSCc1cc(n(C)n1)CSc1cc(c3ccccc3c1)OCCCc1c(C(=O)O)n(C)c3c-2c(Cl)ccc13 [AZD5991] (first compound max 1 µM, 7x7, partner max 1 µM), the Bliss excess was -0.0076 in experiment [1]; -0.0111 in [2]; -0.0595 in experiment [3]; -0.0303 in [4]; -0.0199 in [5]; -0.0384 in experiment [6]. In addition, the Bliss excess with GCIY (Gastric Carcinoma) is -0.0423; with SK-MEL-24 (Melanoma) it was -0.0519; in experiment [8], -0.05; in [9], 0.0026; in experiment [10] it was 0.0344; in experiment [11], -0.0086. In addition, the Bliss excess in experiment [12] is -0.015; in experiment [13], -0.0434; in the experiment on MG-63 (Osteosarcoma), 0.0065; in experiment [14], -0.0275.
